Assay results from patent publication US12448369B2 (Edgewise Therapeutics, Inc., priority 2023, dated 2025).

Legend:
[1] = tested on: Rabbit Psoas myofibrils (skeletal myosin ATPase); assay: Myofibril ATPase assay, rabbit psoas (skeletal) myofibrils; type: biochemical; conditions: rabbit psoas myofibrils
How it was run: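 Myofibrils homogenized in Triton X-100 buffer were assayed in pH 7.0 PIPES with defined Ca2+/EGTA. Myosin-driven ADP formation was coupled to NADH oxidation, with depletion monitored at 340 nm. Each value is the concentration that lowers activity to 75% of vehicle or, for activators, raises it to 125%.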

[2] = target: T1, Porcine ventricle myofibrils (ventricular myosin ATPase) (Sus scrofa, UniProt P79293); assay: Myofibril ATPase assay, porcine ventricle myofibrils; type: biochemical, porcine (Yucatan minipigs); conditions: porcine ventricle myofibrils
T1 construct: Myofibrils from porcine cardiac muscle was isolated from the left ventricle of Yucatan minipigs; tissue Exemplar Genetics; host or cells: left ventricle of Yucatan minipigs, myofibrils prepared in house
T1 sequence (P79293 whole entry): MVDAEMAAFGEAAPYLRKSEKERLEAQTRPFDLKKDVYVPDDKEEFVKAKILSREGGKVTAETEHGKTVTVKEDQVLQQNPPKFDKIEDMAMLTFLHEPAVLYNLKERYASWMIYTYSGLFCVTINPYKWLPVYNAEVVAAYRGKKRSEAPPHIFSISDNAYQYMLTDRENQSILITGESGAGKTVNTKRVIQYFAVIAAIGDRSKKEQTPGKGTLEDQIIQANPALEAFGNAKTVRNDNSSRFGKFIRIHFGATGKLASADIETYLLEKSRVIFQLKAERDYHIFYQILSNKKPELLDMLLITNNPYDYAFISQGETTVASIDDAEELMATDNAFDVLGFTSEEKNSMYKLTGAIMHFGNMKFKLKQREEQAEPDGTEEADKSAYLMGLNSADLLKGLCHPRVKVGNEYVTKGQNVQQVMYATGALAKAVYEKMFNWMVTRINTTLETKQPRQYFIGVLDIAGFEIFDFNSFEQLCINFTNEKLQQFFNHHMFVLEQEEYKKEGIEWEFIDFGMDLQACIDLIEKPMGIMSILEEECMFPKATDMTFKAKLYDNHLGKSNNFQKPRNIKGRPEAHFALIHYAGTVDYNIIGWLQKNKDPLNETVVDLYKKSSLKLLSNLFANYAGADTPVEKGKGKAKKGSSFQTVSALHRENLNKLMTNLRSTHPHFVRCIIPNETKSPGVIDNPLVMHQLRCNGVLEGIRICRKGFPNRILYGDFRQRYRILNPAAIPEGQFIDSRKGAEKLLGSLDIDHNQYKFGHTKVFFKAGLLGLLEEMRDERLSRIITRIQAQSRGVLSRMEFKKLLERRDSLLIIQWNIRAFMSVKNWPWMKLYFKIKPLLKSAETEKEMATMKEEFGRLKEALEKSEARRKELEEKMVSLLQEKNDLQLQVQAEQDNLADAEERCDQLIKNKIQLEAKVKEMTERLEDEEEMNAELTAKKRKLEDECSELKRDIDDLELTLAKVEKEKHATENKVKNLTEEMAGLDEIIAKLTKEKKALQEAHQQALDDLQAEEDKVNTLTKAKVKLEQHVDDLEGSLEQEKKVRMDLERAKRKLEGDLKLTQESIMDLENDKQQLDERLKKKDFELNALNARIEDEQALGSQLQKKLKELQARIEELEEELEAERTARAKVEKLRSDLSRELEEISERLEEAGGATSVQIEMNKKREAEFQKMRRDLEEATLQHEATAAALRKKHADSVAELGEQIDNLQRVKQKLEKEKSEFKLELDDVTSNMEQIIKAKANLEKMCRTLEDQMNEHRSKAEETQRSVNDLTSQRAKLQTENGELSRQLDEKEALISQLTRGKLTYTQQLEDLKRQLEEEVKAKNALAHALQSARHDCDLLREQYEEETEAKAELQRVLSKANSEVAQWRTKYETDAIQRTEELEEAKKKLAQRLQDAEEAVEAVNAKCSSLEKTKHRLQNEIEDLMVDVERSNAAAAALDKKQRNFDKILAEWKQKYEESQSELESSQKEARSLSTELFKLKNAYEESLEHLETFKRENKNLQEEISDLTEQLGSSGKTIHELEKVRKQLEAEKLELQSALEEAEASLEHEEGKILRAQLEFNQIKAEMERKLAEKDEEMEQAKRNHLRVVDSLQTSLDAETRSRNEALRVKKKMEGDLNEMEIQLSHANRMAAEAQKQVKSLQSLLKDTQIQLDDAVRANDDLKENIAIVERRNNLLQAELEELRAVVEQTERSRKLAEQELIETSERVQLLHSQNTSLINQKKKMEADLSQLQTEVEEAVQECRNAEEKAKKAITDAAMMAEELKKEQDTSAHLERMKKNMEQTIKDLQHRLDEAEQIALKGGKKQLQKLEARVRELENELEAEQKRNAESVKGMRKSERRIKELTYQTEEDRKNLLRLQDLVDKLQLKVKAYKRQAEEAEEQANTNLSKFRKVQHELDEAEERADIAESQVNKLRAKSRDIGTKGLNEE
How it was run: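 Test compounds acted on myofibrils isolated from the left ventricle of Yucatan minipigs. ADP formation was coupled via pyruvate kinase/lactate dehydrogenase to NADH oxidation, monitored kinetically at 340 nm over 75 min. Rates relative to vehicle were fitted with a 4-parameter logistic model, reported as Y75 (25% inhibition) or Y125 (activation) concentrations.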

[3] = tested on: Porcine atria myofibrils (atrial myosin ATPase); assay: Myofibril ATPase assay, porcine atria myofibrils; type: biochemical; conditions: porcine atria myofibrils
How it was run: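 Values are Y75 (concentration cutting ATPase activity to 75% of vehicle) or Y125 (raising it to 125%), taken from 4-parameter logistic fits. Rates come from NADH disappearance at 340 nm in a PK/LDH-coupled assay with porcine atria myofibrils.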

[4] = Y75 value (75% activity relative to no compound)
[5] = ‡ Y125 value, not a Y75 value (125% activity relative to no compound)

Skeletal EC25 ([1]; Y75 value)	Ventricular EC25 ([2]; Y75 value)	Atrial EC25 [3, 4]	Skeletal EC25 ([1]; Y75 value (no ‡ mark))	Ventricular EC25 ([2]; Y75 value (no ‡ mark))	Atrial EC25 ([3]; Y75 value (no ‡ mark))	Skeletal EC25 [1, 5]	Ventricular EC25 [2, 5]	SMILES
0.49 µM	10.63 µM	4.56 µM	–	–	–	–	–	Cc1c(CC(=O)N[C@H](C)c2ncc(C#N)cc2F)c(=O)[nH]c2ccnc(C#N)c12 (single isomer, unassigned) [compound 284]
73.40 µM	100.00 µM	100.00 µM	–	–	–	–	–	Cc1nccc2[nH]c(=O)c(CC(=O)N[C@@H](CO)c3ccncc3)c(C)c12 [compound 293]
–	–	–	20.88 µM	100.00 µM	0.44 µM	–	–	N#Cc1cc(F)c2c(c1)OC[C@H]2NC(=O)C1(c2cc3c(F)c(F)ccc3[nH]c2=O)CC1 (single isomer, unassigned) [compound 4821]
–	–	–	0.05 µM	0.39 µM	0.16 µM	–	–	Cc1c(CC(=O)N[C@@H](C)c2ncc(F)cc2F)c(=O)[nH]c2ccc(F)c(C(F)(F)F)c12 [compound 10]
–	–	–	0.29 µM	100.00 µM	1.50 µM	–	–	Cc1cc([C@H](C)NC(=O)Cc2c(C)c3c(C)c(F)ccc3[nH]c2=O)ncc1F (single isomer, unassigned) [compound 2077]
–	–	–	–	100.00 µM	4.73 µM	100.00‡ μM	–	Cc1c(C(F)(F)C(=O)N[C@H](C)c2nccc(C#N)n2)c(=O)[nH]c2ccc(F)cc12 (single isomer, unassigned) [compound 2527]
100.00 µM	100.00 µM	100.00 µM	–	–	–	–	–	COc1cccc([C@H](C)NC(=O)Cc2c(C)c3c(C)nccc3[nH]c2=O)c1 (single isomer, unassigned) [compound 315]
–	–	–	0.11 µM	0.14 µM	0.07 µM	–	–	Cc1nc(C#N)cnc1[C@@H](C)NC(=O)Cc1c(C)c2c(C#N)c(F)ccc2[nH]c1=O (single isomer, unassigned) [compound 1]
–	–	–	0.37 µM	1.44 µM	6.47 µM	–	–	Cc1c(CC(=O)N[C@H](C)c2cnc(C#N)cn2)c(=O)[nH]c2ccc(F)cc12 [compound 1108]
0.71 µM	1.77 µM	1.30 µM	–	–	–	–	–	Cc1nccc2[nH]c(=O)c(CC(=O)N[C@H](C)c3ccc(C#N)cc3F)c(C)c12 (single isomer, unassigned) [compound 255]
–	–	–	3.55 µM	100.00 µM	1.38 µM	–	–	C[C@H](NC(=O)Cc1cc2c(Cl)c(O)ccc2[nH]c1=O)c1ccc(F)cc1F [compound 91]
–	–	–	0.04 µM	0.32 µM	0.05 µM	–	–	Cc1c(CC(=O)N[C@H](CO)c2ccc(F)cc2F)c(=O)[nH]c2cccc(C#N)c12 (single isomer, unassigned) [compound 89]
–	–	–	100.00 µM	100.00 µM	100.00 µM	–	–	C[C@H](NC(=O)[C@H](C)c1cc2c(Cl)c(O)ccc2[nH]c1=O)c1ccc(F)cc1F (single isomer, unassigned) [compound 86]
–	–	–	0.02 µM	0.06 µM	0.03 µM	–	–	Cc1c(CC(=O)N[C@@H](C)c2ccc(C#N)cc2F)c(=O)[nH]c2ccc(F)c(C(F)(F)F)c12 [compound 38]
1.12 µM	22.06 µM	2.51 µM	–	–	–	–	–	Cc1c(CC(=O)N[C@@H](CO)c2ncc(C#N)cc2F)c(=O)[nH]c2cnnc(C#N)c12 [compound 164]
–	–	–	0.47 µM	2.55 µM	0.97 µM	–	–	Cc1c(CC(=O)N[C@@H](C)c2ccc(C#N)cn2)c(=O)[nH]c2cc(F)c(F)cc12 [compound 1113]
0.63 µM	3.57 µM	0.70 µM	–	–	–	–	–	COc1nccc2[nH]c(=O)c(CC(=O)N[C@@H](C)c3ncc(C#N)cc3F)c(C(F)(F)F)c12 (single isomer, unassigned) [compound 3010]
–	–	–	1.26 µM	100.00 µM	23.51 µM	–	–	Cc1c(CC(=O)N[C@@H](CO)c2ccc(F)cc2F)c(=O)[nH]c2cccc(C#N)c12 (single isomer, unassigned) [compound 90]
100.00 µM	100.00 µM	100.00 µM	–	–	–	–	–	Cc1nncc2[nH]c(=O)c(CC(=O)N[C@H](C)c3ncc(C#N)cc3F)cc12 [compound 451]

Skeletal EC25 ([1]; Y75 value)	Ventricular EC25 ([2]; Y75 value)	Atrial EC25 [3, 4]	Skeletal EC25 ([1]; Y75 value (no ‡ mark))	Ventricular EC25 ([2]; Y75 value (no ‡ mark))	Atrial EC25 ([3]; Y75 value (no ‡ mark))	Skeletal EC25 [1, 5]	Ventricular EC25 [2, 5]	SMILES
100.00 µM	100.00 µM	100.00 µM	–	–	–	–	–	Cc1nc([C@H](C)NC(=O)Cc2c(C)c3c(C)nccc3[nH]c2=O)ncc1C#N [compound 479]
12.74 µM	66.84 µM	4.84 µM	–	–	–	–	–	C[C@H](NC(=O)[C@@H](C)c1c(C(F)(F)F)c2cnccc2[nH]c1=O)c1ccc(F)cc1F (single isomer, unassigned) [compound 426]
–	–	–	100.00 µM	–	100.00 µM	–	100.00‡ μM	Cc1ccc2[nH]c(=O)c(CC(=O)N[C@@H](C)c3ncc(C#N)cn3)cc2c1F (single isomer, unassigned) [compound 2014]
100.00 µM	100.00 µM	100.00 µM	–	–	–	–	–	Cc1c(CC(=O)N[C@H](CO)c2ccc(F)cc2F)c(=O)[nH]c2ccc(C(F)(F)F)nc12 [compound 216]
–	–	–	0.85 µM	0.70 µM	0.33 µM	–	–	Cc1c(C2(C(=O)N[C@H](C)c3ncc(C#N)cc3F)CC2)c(=O)[nH]c2cccc(C#N)c12 (single isomer, unassigned) [compound 2541]
4.60 µM	100.00 µM	34.93 µM	–	–	–	–	–	Cc1nccc2[nH]c(=O)c(CC(=O)N[C@H](CO)c3ncc(C#N)cc3F)c(C)c12 (single isomer, unassigned) [compound 247]
0.19 µM	49.13 µM	2.11 µM	–	–	–	–	–	CNc1nccc2[nH]c(=O)c(CC(=O)N[C@@H](C)c3ccc(F)cc3F)c(C)c12 [compound 354]
–	–	–	0.14 µM	0.72 µM	0.32 µM	–	–	Cc1c(C(F)(F)C(=O)N[C@@H](C)c2ncc(C#N)cn2)c(=O)[nH]c2ccc(F)c(C#N)c12 (single isomer, unassigned) [compound 2522]
–	–	–	0.03 µM	0.40 µM	0.10 µM	–	–	Cc1c(CC(=O)N[C@@H](C)c2ccc(F)cc2F)c(=O)[nH]c2ccccc12 [compound 135]
–	–	–	100.00 µM	8.06 µM	40.54 µM	–	–	C[C@@H](NC(=O)C(F)(F)c1cc2c(F)c(F)ccc2[nH]c1=O)c1cccc(C#N)n1 (single isomer, unassigned) [compound 2571]
15.02 µM	100.00 µM	22.46 µM	–	–	–	–	–	Cc1c(CC(=O)N[C@H](C)c2ccc(C#N)cc2F)c(=O)[nH]c2cnnc(C#N)c12 [compound 171]
24.76 µM	100.00 µM	100.00 µM	–	–	–	–	–	Cc1c(CC(=O)N[C@H](c2ccc(F)cc2F)C(C)(C)O)c(=O)[nH]c2ccnc(C#N)c12 (single isomer, unassigned) [compound 280]
–	–	–	100.00 µM	100.00 µM	97.50 µM	–	–	Cc1c(C2(C(=O)N[C@H](C)c3nccc(C#N)n3)CC2)c(=O)[nH]c2ccc(F)cc12 (single isomer, unassigned) [compound 4841]
0.04 µM	100.00 µM	0.11 µM	–	–	–	–	–	Cc1c(CC(=O)N[C@@H](C)c2ccc(F)cc2F)c(=O)[nH]c2ccc(OC(F)(F)F)nc12 [compound 359]
2.98 µM	39.76 µM	100.00 µM	–	–	–	–	–	C[C@H](NC(=O)Cc1cc2c(C#N)nccc2[nH]c1=O)c1ccc(F)cn1 [compound 475]
–	–	–	10.08 µM	21.67 µM	21.52 µM	–	–	C[C@@H](NC(=O)Cc1c(C2CC2)c2cc(C#N)ccc2[nH]c1=O)c1ncc(C#N)cc1F [compound 1151]
0.05 µM	100.00 µM	100.00 µM	–	–	–	–	–	C[C@H](NC(=O)[C@H](C)c1cc2c(C#N)nccc2[nH]c1=O)c1ccc(F)cc1F (single isomer, unassigned) [compound 360]
–	–	–	0.03 µM	0.14 µM	0.14 µM	–	–	Cc1nc(C#N)cnc1[C@@H](C)NC(=O)Cc1c(C)c2c(F)c(F)ccc2[nH]c1=O [compound 1139]
